From US6355653B1, “Amino-triazolopyridine derivatives” (Hoffmann-La Roche Inc., priority 1999, dated 2002)

Molecular target: T1, human adenosine A2A receptor (Homo sapiens, UniProt P29274)
T1 construct: expressed in transfected cells; host or cells: CHO cells, Semliki Forest virus expression system; washed membrane preparation
Assay: [3H]-SCH-58261 binding assay at the human adenosine A2A receptor
Details: [3H]-SCH-58261 (1 nM), membranes of CHO cells recombinantly expressing the human A2A receptor; Ki by Cheng-Prussoff; read-out: hA2ApKi (converted)
Description: Human Adenosine A2A Receptor
The human adenosine A2A receptor was recombinantly expressed in chinese hamster ovary (CHO) cells using the semliki forest virus expression system. Cells were harvested, washed twice by centrifugation, homogenised and again washed by centrifugation. The final washed membrane pellet was suspended in a Tris (50 mM) buffer containing 120 mM NaCl, […] and 10 mM MgCl2 (pH 7.4) (buffer A). The [^3H]-SCH-58261 (Dionisotti et al., 1997, Br J Pharmacol 121, 353; 1 nM) binding assay was carried out in 96-well plates in the presence of 2.5 μg of membrane protein, 0.5 mg of Ysi-poly-1-lysine SPA beads io and 0.1U adenosine deaminase in a final volume of 200 μl of buffer A. Non-specific binding was defined using xanthine amine congener (XAC; 2 μM). Compounds were tested at 10 concentrations from 10 μM-0.3 nM. All assays were conducted in duplicate and repeated at least two times. Assay plates were incubated for lhour at room temperature before centrifugation and then bound ligand determined using a Packard Topcount scintillation counter. IC50 values were calculated using a non-linear curve fitting program and Ki values calculated using the Cheng-Prussoff equation.

T1 sequence (P29274 whole entry): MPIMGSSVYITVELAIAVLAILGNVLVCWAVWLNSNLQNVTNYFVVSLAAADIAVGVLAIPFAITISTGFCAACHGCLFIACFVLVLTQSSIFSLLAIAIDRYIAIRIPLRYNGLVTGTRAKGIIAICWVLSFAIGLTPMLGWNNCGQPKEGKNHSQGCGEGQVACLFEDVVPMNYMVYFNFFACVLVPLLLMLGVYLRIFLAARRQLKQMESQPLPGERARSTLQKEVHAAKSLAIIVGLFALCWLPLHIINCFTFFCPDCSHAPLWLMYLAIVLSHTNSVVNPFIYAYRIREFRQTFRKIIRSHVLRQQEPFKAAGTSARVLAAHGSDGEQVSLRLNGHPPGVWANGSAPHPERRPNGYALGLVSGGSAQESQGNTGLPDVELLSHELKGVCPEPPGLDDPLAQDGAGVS

Compound	Ki
COc1ccc(-c2cc(N)n3nc(-c4ccco4)nc3c2)cn1 [2-Furan-2-yl-7-(6-methoxy-pyridin-3-yl)-[1,2,4]triazolo[1,5-a]pyridin-5-ylamine]	0.0126 µM
Cc1cccc(-c2cc(N)n3nc(C4=CCCO4)nc3c2)c1 [2-(4,5-Dihydro-furan-2-yl)-7-m-tolyl-[1,2,4]triazolo[1,5-a]pyridin-5-ylamine]	0.0316 µM
Cc1cc(-c2cc(N)n3nc(-c4ccccn4)nc3c2)ccn1 [7-(2-Methyl-pyridin-4-yl)-2-pyridin-2-yl-[1,2,4]triazolo[1,5-a]pyridin-5-ylamine]	0.0316 µM
Nc1cc(-c2ccnc(F)c2)cc2nc(-c3ccco3)nn12 [7-(2-Fluoro-pyridin-4-yl)-2-furan-2-yl-[1,2,4]triazolo[1,5-a]pyridin-5-ylamine]	0.0158 µM
COc1ccc(-c2cc(N)n3nc(-c4ccco4)nc3c2)cc1OC [7-(3,4-Dimethoxy-phenyl)-2-furan-2-yl-[1,2,4]triazolo[1,5-a]pyridin-5-ylamine]	0.0251 µM
CCc1cc(-c2cc(N)n3nc(-c4ccccn4)nc3c2)ccn1 [7-(2-Ethyl-pyridin-4-yl)-2-pyridin-2-yl-[1,2,4]triazolo[1,5-a]pyridin-5-ylamine]	0.00794 µM
Cc1cccc(-c2cc(N)n3nc(-c4ccco4)nc3c2)c1 [2-Furan-2-yl-7-m-tolyl-[1,2,4]triazolo[1,5-a]pyridin-5-ylamine]	0.01 µM
Nc1cc(-c2ccc(Cl)c(Cl)c2)cc2nc(C3=CCCO3)nn12 [7-(3,4-Dichloro-phenyl)-2-(4,5-dihydro-furan-2-yl)-[1,2,4]triazolo[1,5-a]pyridin-5-ylamine]	0.00794 µM
Nc1cc(-c2cccc(F)c2)cc2nc(C3=CCCO3)nn12 [2-(4,5-Dihydro-furan-2-yl)-7-(3-fluoro-phenyl)-[1,2,4]triazolo[1,5-a]pyridin-5-ylamine]	0.0251 µM

System: not given
Assay: not given
Details: not given

Compound	melting point
Nc1cc(-c2ccccn2)cc2nc(-c3ccccc3)nn12 [Example 23, 2-Phenyl-7-pyridin-2-yl-[1,2,4]triazolo[1,5-a]pyridin-5-ylamine]	278 to 280 °C
Cc1cc(-c2cc(N)n3nc(-c4ccco4)nc3c2)ccn1 [Example 7, 2-Furan-2-yl-7-(2-methyl-pyridin-4-yl)-[1,2,4]triazolo[1,5-a]pyridin-5-ylamine]	100 to 101 °C
Nc1cc(-c2cccnc2)cc2nc(-c3ccccc3)nn12 [Example 24, 2-Phenyl-7-pyridin-3-yl-[1,2,4]triazolo[1,5-a]pyridin-5-ylamine]	201 to 203 °C
CCc1cc(-c2cc(N)n3nc(-c4ccco4)nc3c2)ccn1 [Example 8, 7-(2-Ethyl-pyridin-4-yl)-2-furan-2-yl-[1,2,4]triazolo[1,5-a]pyridin-5-ylamine]	184 to 186 °C
Nc1cc(-c2ccccc2)cc2nc(-c3ccccc3)nn12 [Example 25, 2,7-Diphenyl-[1,2,4]triazolo[1,5-a]pyridin-5-ylamine]	214 to 216 °C
Nc1cc(-c2cc(Cl)cc(Cl)c2)cc2nc(-c3ccco3)nn12 [Example 5, 7-(3,5-Dichloro-phenyl)-2-furan-2-yl-[1,2,4]triazolo[1,5-a]pyridin-5-ylamine]	257 to 260 °C
Nc1cc(-c2ccncc2)cc2nc(-c3ccccc3)nn12 [Example 22, 2-Phenyl-7-pyridin-4-yl-[1,2,4]triazolo[1,5-a]pyridin-5-ylamine]	207 to 210 °C
Cc1cc(-c2nc3cc(-c4ccncc4)cc(N)n3n2)oc1C [Example 16, 2-(4,5-Dimethyl-furan-2-yl)-7-pyridin-4-yl-[1,2,4]triazolo[1,5-a]pyridin-5-ylamine]	275 to 277 °C
